What was measured:
[1] = target: T1, human D2 receptor (Homo sapiens, UniProt P14416); assay: Binding assay for D2 receptor using [3H] spiperone; details: test compound 100 nM, cell membrane expressing human D2 receptor, read-out: Binding inhibitory rate (%) for D2 receptor (100 nM)
T1 construct: expressed in transfected cells
Experimental: In general, there is clinically some correlation between antipsychotic action and antagonistic action for dopamine D2 receptor. The experimental method used herein is a binding assay for D2 receptor which is one of the tests evaluating D2 receptor action in vitro, According to the known method (e.g. Japan, J. Pharmacol., 53, 321-329 (1990)), the above-captioned experiment was carried out using [3H] spiperone, i.e., the binding amount of [3H] spiperone to the preparation cell membrane expressing human D2 receptor was measured, and then the binding inhibitory rate by the test compound (100 nM) was measured/calculated.

[2] = tested on: methamphetamine-induced movement of the rat; assay: Anti-methamphetamine test (movement measured with Supermex); format: in vivo; details: male rat, intraperitoneal, 30 min before methamphetamine 1 mg/kg i.p.; movement measured for 90 minutes; dose for 50% inhibition; read-out: Antidopaminergic action ED50
Experimental: The anti-methamphetamine test which is a typical in vivo test for evaluating antipsychotic action in the clinical study was carried out as follows. The test substance was intraperitoneally administered to a male rat, and 30 minutes later methamphetamine (1 mg/kg) was intraperitoneally administered to the male rat. Ten minutes after completing the administrations, the movement of the rat was measured with Supermex for 90 minutes, and the dose for 50% inhibition: ED50 value was calculated.

[3] = Cataleptic action (pole test); details: in vivo, ip; male rat, intraperitoneal, one hour after administration; dose inducing catalepsy in 50% of the rats
Experimental: The cataleptic action which is a typical central nervous system side-effect of antipsychotic agents in the clinical study was evaluated as follows. The test substance was intraperitoneally administered to a male rat. One hour later, the rat was made to hold on a pole three times which is horizontally set at a height of 9 cm. When the rat retained the unnatural stretched pose for 30 seconds even one time out of three times, the rat was evaluated as cataleptic positive. The dose for inducing 50% the rats to the catalepsy: ED50 value was calculated.

T1 sequence (P14416 whole entry): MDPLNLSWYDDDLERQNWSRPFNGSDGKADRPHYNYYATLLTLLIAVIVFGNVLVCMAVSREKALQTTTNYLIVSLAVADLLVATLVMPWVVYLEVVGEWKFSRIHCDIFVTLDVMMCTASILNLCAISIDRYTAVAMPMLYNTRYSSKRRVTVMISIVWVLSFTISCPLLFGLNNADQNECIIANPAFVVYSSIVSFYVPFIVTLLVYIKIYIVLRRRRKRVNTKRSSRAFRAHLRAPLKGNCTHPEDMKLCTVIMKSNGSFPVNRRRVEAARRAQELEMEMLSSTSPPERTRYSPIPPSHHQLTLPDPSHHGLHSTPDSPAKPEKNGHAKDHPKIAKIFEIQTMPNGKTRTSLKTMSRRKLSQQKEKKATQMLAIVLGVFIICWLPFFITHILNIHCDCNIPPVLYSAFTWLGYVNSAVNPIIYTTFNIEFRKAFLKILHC

SMILES	inhibition at 0.1 µM [1] [%]	ED50 [2] [mg/kg]	ED50 at 1 h [3] [mg/kg]
O=C(/C=C/c1ccccc1[N+](=O)[O-])NC[C@H]1CCCC[C@@H]1CN1CCN(c2nsc3ccccc23)CC1 [Example 33]	90	–	–
O=C1C2C3CCC(C3)C2C(=O)N1C[C@@H]1CCCC[C@H]1CN1CCN(c2nsc3cc(F)ccc23)CC1 (stereo partly drawn) [Example 85]	91	–	–
O=C(/C=C/c1ccc2c(c1)OCO2)NC[C@H]1CCC[C@@H]1CN1CCN(c2nsc3ccccc23)CC1 [Example 104]	92	–	–
O=C(/C=C/c1ccc2c(c1)OCO2)NC[C@@H]1CCCC[C@@H]1CN1CCN(c2nsc3ccccc23)CC1 [Example 21]	91	–	–
O=C1C2C3CCC(C3)C2C(=O)N1C[C@@H]1CCCC[C@H]1CN1CCC(c2noc3ccccc23)CC1 (stereo partly drawn) [Example 223]	94	–	–
O=C(/C=C/c1ccccc1F)NC[C@H]1CCCC[C@@H]1CN1CCN(c2nsc3ccccc23)CC1 [Example 44]	91	–	–
COc1ccccc1/C=C/C(=O)NC[C@@H]1CCCC[C@@H]1CN1CCN(c2nsc3ccccc23)CC1 [Example 15]	93	–	–
COc1ccccc1/C=C/C(=O)NC[C@H]1CCCC[C@@H]1CN1CCN(c2nsc3ccccc23)CC1 [Example 32]	91	–	–
Cc1ccccc1/C=C/C(=O)NC[C@H]1CCCC[C@H]1CN1CCN(c2nsc3ccccc23)CC1 [Example 60]	91	–	–
O=C(NC[C@H]1CCCC[C@H]1CN1CCN(c2nsc3ccccc23)CC1)c1ccc2c(c1)OCO2 [Example 67]	90	–	–
C=C1[C@H](CNC(=O)/C=C/c2ccccc2C)[C@H]1CN1CCC(c2noc3cc(F)ccc23)CC1 [Example 185]	92	–	–
O=C(/C=C/c1ccccc1[N+](=O)[O-])NC[C@H]1CCCC[C@H]1CN1CCN(c2nsc3ccccc23)CC1 [Example 64]	92	–	–
O=C(NC[C@@H]1CCCC[C@H]1CN1CCN(c2nsc3cc(F)ccc23)CC1)c1ccc2c(c1)OCO2 [Example 82]	94	–	–
O=C(/C=C/c1cccc(Cl)c1)NC[C@@H]1CCCC[C@H]1CN1CCC(c2noc3cc(F)ccc23)CC1 [Example 200]	92	0.24	> 7.2
O=S(=O)(NC[C@H]1CCC[C@@H]1CN1CCN(c2nsc3ccccc23)CC1)c1cccc(-c2ccccc2)c1 [Example 100]	91	–	–
C=C1[C@H](CNS(=O)(=O)c2cccc(-c3ccccc3)c2)[C@H]1CN1CCC(c2noc3cc(F)ccc23)CC1 [Example 190]	92	–	–
COc1ccc(OC)c(S(=O)(=O)NC[C@@H]2CCCC[C@H]2CN2CCC(c3n[nH]c4cc(F)ccc34)CC2)c1 [Example 241]	95	–	–
O=C(NC[C@@H]1CCCC[C@H]1CN1CCC(c2n[nH]c3cc(F)ccc23)CC1)c1ccc2c(c1)OCO2 [Example 242]	95	–	–
O=C(Cc1ccc(Cl)cc1)NC[C@H]1CCCC[C@@H]1CN1CCN(c2nsc3ccccc23)CC1 [Example 37]	90	–	–

SMILES	inhibition at 0.1 µM [1] [%]	ED50 [2] [mg/kg]	ED50 at 1 h [3] [mg/kg]
COc1ccc(OC)c(S(=O)(=O)NC[C@H]2CCC[C@@H]2CN2CCN(c3nsc4ccccc34)CC2)c1 [Example 101]	94	–	–
O=C1C2C3CCC(C3)C2C(=O)N1C[C@@H]1CCCC[C@H]1CN1CCC(c2noc3ccc(F)cc23)CC1 (stereo partly drawn) [Example 225]	94	–	–
COc1cccc(/C=C/C(=O)NC[C@H]2CCCC[C@H]2CN2CCN(c3nsc4ccccc34)CC2)c1OC [Example 62]	91	–	–
O=C(NC[C@H]1CCC[C@@H]1CN1CCN(c2nsc3ccccc23)CC1)c1ccc2c(c1)OCO2 [Example 102]	95	–	–
O=C(/C=C/c1ccc2c(c1)OCO2)NC[C@H]1CCCC[C@H]1CN1CCN(c2nsc3ccccc23)CC1 [Example 69]	91	–	–
O=C(/C=C/c1ccc2c(c1)OCO2)NC[C@@H]1CCCC[C@H]1CN1CCC(c2noc3cc(F)ccc23)CC1 [Example 222]	93	–	–
O=C(NC[C@H]1CCC[C@@H]1CN1CCN(c2nsc3ccccc23)CC1)c1cccc(Oc2ccccc2)c1 [Example 87]	93	4.5	> 135
Cc1cccc(/C=C/C(=O)NC[C@H]2C[C@@H]2CN2CCN(c3nsc4ccccc34)CC2)c1 [Example 137]	95	–	–
O=C(/C=C/c1ccc2c(c1)OCO2)NC[C@@H]1CCCC[C@H]1CN1CCN(c2nsc3cc(F)ccc23)CC1 [Example 84]	95	–	–
O=C(NC[C@H]1CCCC[C@@H]1CN1CCN(c2nsc3ccccc23)CC1)c1ccc2c(c1)OCO2 [Example 36]	92	–	–
O=C(/C=C/c1ccccc1[N+](=O)[O-])NC[C@@H]1CCCC[C@H]1CN1CCC(c2n[nH]c3cc(F)ccc23)CC1 [Example 239]	95	–	–
O=C(/C=C/c1ccccc1[N+](=O)[O-])NC[C@@H]1CCCC[C@@H]1CN1CCN(c2nsc3ccccc23)CC1 [Example 16]	94	–	–
COc1ccccc1/C=C/C(=O)NC[C@H]1C[C@@H]1CN1CCN(c2nsc3ccccc23)CC1 [Example 139]	91	–	–
COc1cccc(/C=C/C(=O)NC[C@@H]2CCCC[C@@H]2CN2CCN(c3nsc4ccccc34)CC2)c1OC [Example 14]	92	–	–
Cc1cccc(/C=C/C(=O)NC[C@@H]2CCCC[C@@H]2CN2CCN(c3nsc4ccccc34)CC2)c1 [Example 13]	92	–	–
O=C(Cc1ccc(Cl)cc1)NC[C@@H]1CCCC[C@H]1CN1CCC(c2n[nH]c3cc(F)ccc23)CC1 [Example 243]	94	–	–
C=C1[C@H](CNC(=O)c2ccc3c(c2)OCO3)[C@H]1CN1CCC(c2noc3cc(F)ccc23)CC1 [Example 192]	90	–	–
O=C(NC[C@@H]1CCCC[C@H]1CN1CCC(c2noc3cc(F)ccc23)CC1)c1ccc2c(c1)OCO2 [Example 221]	93	–	–
O=S(=O)(NC[C@@H]1CCCC[C@H]1CN1CCC(c2n[nH]c3cc(F)ccc23)CC1)c1cccc(-c2ccccc2)c1 [Example 240]	85	–	–

— US20110003994A1, “CYCLOALKANE DERIVATIVE” (Dainippon Sumitomo Pharma Co., Ltd., priority 2009, published 2011)
